According to patent US10864196B2, “Modulators of the integrated stress pathway” (Calico Life Sciences LLC, priority 2016, dated 2020):

Tested on: HEK293T cells carrying the ATF4 luciferase reporter
Test: ATF4-Luc assay (in vitro model of VWMD)
Type: cell-based
Settings: Homo sapiens, HEK-293T, 1 μg/mL tunicamycin, 7 hours, One Glo luminescence
Description: In order to test exemplary compounds of the invention in a cellular context, a stable VWMD cell line was first constructed. The ATF4 reporter was prepared by fusing the human full-length ATF4 5′-UTR (NCBI Accession No. BC022088.2) in front of the firefly luciferase (FLuc) coding sequence lacking the initiator methionine as described in Sidrauski et al (eLife 2013). The construct was used to produce recombinant retroviruses using standard methods and the resulting viral supernatant was used to transduce HEK293T cells, which were then subsequently selected with puromycin to generate a stable cell line.
HEK293T cells carrying the ATF4 luciferase reporter were plated on polylysine coated 384-well plates (Greiner Bio-one) at 30,000 cells per well. Cells were treated the next day with 1 μg/mL tunicamycin and 200 nM of a compound of Formula (I) for 7 hours. Luminescence was measured using One Glo (Promega) as specified by the manufacturer. Cells were maintained in DMEM with L-glutamine supplemented with 10% heat-inactivated FBS (Gibco) and Antibiotic-Antimycotic solution (Gibco).
Table 2 below summarizes the EC50 data obtained using the ATF4-Luc assay for exemplary compounds of the invention.

| SMILES | EC50 |
| --- | --- |
| Cc1ccc(Oc2nnc(C34CC(NC(=O)COc5ccc(Cl)c(F)c5)(C3)C4)o2)cc1C [Compound 130, 2-(4-chloro-3-fluorophenoxy)-N-{3-[5-(3,4-dimethylphenoxy)-1,3,4-oxadiazol-2-yl]bicyclo[1.1.1]pentan-1-yl}acetamide] | 50 to 250 nM |
| O=C(COc1ccc(Cl)c(F)c1)NC12CC(c3nnc(Oc4ccc(C(F)(F)F)cc4)o3)(C1)C2 [Compound 131, 2-(4-chloro-3-fluorophenoxy)-N-(3-{5-[4-(trifluoromethyl)phenoxy]-1,3,4-oxadiazol-2-yl}bicyclo[1.1.1]pentan-1-yl)acetamide] | < 50 nM |
| O=C(COc1ccc(Cl)c(F)c1)NC12CC(c3nnc(COc4ccc(Cl)cc4)[nH]3)(C1)C2 [Compound 132, 2-(4-chloro-3-fluorophenoxy)-N-(3-{5-[(4-chlorophenoxy)methyl]-4H-1,2,4-triazol-3-yl}bicyclo[1.1.1]pentan-1-yl)acetamide] | < 50 nM |
| O=C(COc1ccc2c(c1)OC(F)(F)O2)NC12CC(c3nnc(COc4ccc(Cl)c(F)c4)o3)(C1)C2 [Compound 133, N-(3-{5-[(4-chloro-3-fluorophenoxy)methyl]-1,3,4-oxadiazol-2-yl}bicyclo-[1.1.1]pentan-1-yl)-2-[(2,2-difluoro-2H-1,3-benzodioxol-5-yl)oxy]acetamide] | < 50 nM |
| Cc1ccccc1Oc1nnc(C23CC(NC(=O)COc4ccc(Cl)c(F)c4)(C2)C3)o1 [Compound 134, 2-(4-chloro-3-fluorophenoxy)-N-{3-[5-(2-methylphenoxy)-1,3,4-oxadiazol-2-yl]bicyclo[1.1.1]pentan-1-yl}acetamide] | 250 to 1000 nM |
| Cc1cccc(Oc2nnc(C34CC(NC(=O)COc5ccc(Cl)c(F)c5)(C3)C4)o2)c1 [Compound 135, 2-(4-chloro-3-fluorophenoxy)-N-{3-[5-(3-methylphenoxy)-1,3,4-oxadiazol-2-yl]bicyclo[1.1.1]pentan-1-yl}acetamide] | 50 to 250 nM |
| COc1cccc(Oc2nnc(C34CC(NC(=O)COc5ccc(Cl)c(F)c5)(C3)C4)o2)c1 [Compound 136, 2-(4-chloro-3-fluorophenoxy)-N-{3-[5-(3-methoxyphenoxy)-1,3,4-oxadiazol-2-yl]bicyclo[1.1.1]pentan-1-yl}acetamide] | 50 to 250 nM |
| O=C(COc1ccc(Cl)c(F)c1)NC12CC(c3nnc(Oc4ccccc4F)o3)(C1)C2 [Compound 137, 2-(4-chloro-3-fluorophenoxy)-N-{3-[5-(2-fluorophenoxy)-1,3,4-oxadiazol-2-yl]bicyclo[1.1.1]pentan-1-yl}acetamide] | 250 to 1000 nM |
| O=C(COc1ccc(Cl)c(F)c1)NC12CC(c3nnc(Oc4cccc(F)c4)o3)(C1)C2 [Compound 138, 2-(4-chloro-3-fluorophenoxy)-N-{3-[5-(3-fluorophenoxy)-1,3,4-oxadiazol-2-yl]bicyclo[1.1.1]pentan-1-yl}acetamide] | 50 to 250 nM |
| O=C(COc1ccc(Cl)c(F)c1)NC12CC(c3nnc(Oc4cccc(C(F)(F)F)c4)o3)(C1)C2 [Compound 139, 2-(4-chloro-3-fluorophenoxy)-N-(3-{5-[3-(trifluoromethyl)phenoxy]-1,3,4-oxadiazol-2-yl}bicyclo[1.1.1]pentan-1-yl)acetamide] | < 50 nM |
| O=C(COc1ccc(Cl)c(F)c1)NC12CC(c3nnc(COc4cncc(F)c4)o3)(C1)C2 [Compound 140, 2-(4-chloro-3-fluorophenoxy)-N-[3-(5-{[(5-fluoropyridin-3-yl)oxy]methyl}-1,3,4-oxadiazol-2-yl)bicyclo[1.1.1]pentan-1-yl]acetamide] | 50 to 250 nM |
| O=C(COc1ccc(Cl)c(F)c1)NC12CC(c3nnc(COc4ccc(C(F)(F)F)nc4)o3)(C1)C2 [Compound 141, 2-(4-chloro-3-fluorophenoxy)-N-{3-[5-({[6-(trifluoromethyl)pyridin-3-yl]oxy}methyl)-1,3,4-oxadiazol-2-yl]bicyclo[1.1.1]pentan-1-yl}acetamide] | 50 to 250 nM |
| COc1ccc(OCc2nnc(C34CC(NC(=O)COc5ccc(Cl)c(F)c5)(C3)C4)o2)cn1 [Compound 142, 2-(4-chloro-3-fluorophenoxy)-N-[3-(5-{[(6-methoxypyridin-3-yl)oxy]methyl}-1,3,4-oxadiazol-2-yl)bicyclo[1.1.1]pentan-1-yl]acetamide] | < 50 nM |
| Cc1cncc(OCc2nnc(C34CC(NC(=O)COc5ccc(Cl)c(F)c5)(C3)C4)o2)c1 [Compound 143, 2-(4-chloro-3-fluorophenoxy)-N-[3-(5-{[(5-methylpyridin-3-yl)oxy]methyl}-1,3,4-oxadiazol-2-yl)bicyclo[1.1.1]pentan-1-yl]acetamide] | 250 to 1000 nM |
| N#Cc1cncc(OCc2nnc(C34CC(NC(=O)COc5ccc(Cl)c(F)c5)(C3)C4)o2)c1 [Compound 144, 2-(4-chloro-3-fluorophenoxy)-N-[3-(5-{[(5-cyanopyridin-3-yl)oxy]methyl}-1,3,4-oxadiazol-2-yl)bicyclo[1.1.1]pentan-1-yl]acetamide] | > 2000 nM |
| Cc1ncc(OCc2nnc(C34CC(NC(=O)COc5ccc(Cl)c(F)c5)(C3)C4)o2)cc1Cl [Compound 145, 2-(4-chloro-3-fluorophenoxy)-N-[3-(5-{[(5-chloro-6-methylpyridin-3-yl)oxy]methyl}-1,3,4-oxadiazol-2-yl)bicyclo[1.1.1]pentan-1-yl]acetamide] | 50 to 250 nM |
| Cc1ccc(OCc2nnc(C34CC(NC(=O)COc5ccc(Cl)c(F)c5)(C3)C4)o2)cn1 [Compound 146, 2-(4-chloro-3-fluorophenoxy)-N-[3-(5-{[(6-methylpyridin-3-yl)oxy]methyl}-1,3,4-oxadiazol-2-yl)bicyclo[1.1.1]pentan-1-yl]acetamide] | 250 to 1000 nM |
| CC(C)Oc1ccc(OCc2nnc(C34CC(NC(=O)COc5ccc(Cl)c(F)c5)(C3)C4)o2)cn1 [Compound 147, 2-(4-chloro-3-fluorophenoxy)-N-(3-{5-[({6-[(propan-2-yl)oxy]pyridin-3-yl}oxy)methyl]-1,3,4-oxadiazol-2-yl}bicyclo[1.1.1]pentan-1-yl)acetamide] | 1000 to 2000 nM |
| O=C(COc1ccc(Cl)c(F)c1)NC12CC(c3nnc(COc4cncc(Cl)c4)o3)(C1)C2 [Compound 148, 2-(4-chloro-3-fluorophenoxy)-N-[3-(5-{[(5-chloropyridin-3-yl)oxy]methyl}-1,3,4-oxadiazol-2-yl)bicyclo[1.1.1]pentan-1-yl]acetamide] | 50 to 250 nM |
| O=C(COc1ccc(Cl)c(F)c1)NC12CC(c3nnc(COc4cnc5cc[nH]c5c4)o3)(C1)C2 [Compound 149, 2-(4-chloro-3-fluorophenoxy)-N-[3-(5-{[(1H-pyrrolo[3,2-b]pyridin-6-yl)oxy]methyl}-1,3,4-oxadiazol-2-yl)bicyclo[1.1.1]pentan-1-yl]acetamide] | 1000 to 2000 nM |
| O=C(COc1ccc(Cl)c(F)c1)NC12CC(c3nnc(COc4ccc(C5CC5)nc4)o3)(C1)C2 [Compound 150, 2-(4-chloro-3-fluorophenoxy)-N-[3-(5-{[(6-cyclopropylpyridin-3-yl)oxy]methyl}-1,3,4-oxadiazol-2-yl)bicyclo[1.1.1]pentan-1-yl]acetamide] | 1000 to 2000 nM |
| COc1ccc(OCc2nnc(C34CC(NC(=O)COc5ccc(Cl)c(F)c5)(C3)C4)o2)c(C)n1 [Compound 151, 2-(4-chloro-3-fluorophenoxy)-N-[3-(5-{[(6-methoxy-2-methylpyridin-3-yl)oxy]methyl}-1,3,4-oxadiazol-2-yl)bicyclo[1.1.1]pentan-1-yl]acetamide] | 1000 to 2000 nM |
| O=C(COc1ccc(Cl)c(F)c1)NC12CC(c3nnc(COc4cnc5ccoc5c4)o3)(C1)C2 [Compound 152, 2-(4-chloro-3-fluorophenoxy)-N-[3-(5-{[(furo[3,2-b]pyridin-6-yl)oxy]methyl}-1,3,4-oxadiazol-2-yl)bicyclo[1.1.1]pentan-1-yl]acetamide] | 1000 to 2000 nM |
| CCc1nc(C)ccc1OCc1nnc(C23CC(NC(=O)COc4ccc(Cl)c(F)c4)(C2)C3)o1 [Compound 153, 2-(4-chloro-3-fluorophenoxy)-N-[3-(5-{[(2-ethyl-6-methylpyridin-3-yl)oxy]methyl}-1,3,4-oxadiazol-2-yl)bicyclo[1.1.1]pentan-1-yl]acetamide] | > 2000 nM |
| CC(C)c1ccc(OCc2nnc(C34CC(NC(=O)COc5ccc(Cl)c(F)c5)(C3)C4)o2)cn1 [Compound 154, 2-(4-chloro-3-fluorophenoxy)-N-{3-[5-({[6-(propan-2-yl)pyridin-3-yl]oxy}methyl)-1,3,4-oxadiazol-2-yl]bicyclo[1.1.1]pentan-1-yl}acetamide] | > 2000 nM |
| COc1ncc(OCc2nnc(C34CC(NC(=O)COc5ccc(Cl)c(F)c5)(C3)C4)o2)cc1C [Compound 155, 2-(4-chloro-3-fluorophenoxy)-N-[3-(5-{[(6-methoxy-5-methylpyridin-3-yl)oxy]methyl}-1,3,4-oxadiazol-2-yl)bicyclo[1.1.1]pentan-1-yl]acetamide] | 250 to 1000 nM |
| Cc1cc(OCc2nnc(C34CC(NC(=O)COc5ccc(Cl)c(F)c5)(C3)C4)o2)cnc1C#N [Compound 156, 2-(4-chloro-3-fluorophenoxy)-N-[3-(5-{[(6-cyano-5-methylpyridin-3-yl)oxy]methyl}-1,3,4-oxadiazol-2-yl)bicyclo[1.1.1]pentan-1-yl]acetamide] | 1000 to 2000 nM |
| N#Cc1ccc(OCc2nnc(C34CC(NC(=O)COc5ccc(Cl)c(F)c5)(C3)C4)o2)cn1 [Compound 157, 2-(4-chloro-3-fluorophenoxy)-N-[3-(5-{[(6-cyanopyridin-3-yl)oxy]methyl}-1,3,4-oxadiazol-2-yl)bicyclo[1.1.1]pentan-1-yl]acetamide] | 250 to 1000 nM |
